Results taken from patent US20050059626A1, “Methods of preventing and treating viral infections using immunomodulatory polynucleotide sequences” (priority 2000, published 2005).
Where two headings read alike, the source gives them in different places.

Key:
[1] = system: influenza A/Mississippi (H3N2) virus; type: in vivo, mice; settings: for Pulmonary virus titer (log10/lung) Mean / Pulmonary virus titer (log10/lung) in mouse no. 1 / Pulmonary virus titer (log10/lung) in mouse no. 2 / Pulmonary virus titer (log10/lung) in mouse no. 3 / Pulmonary virus titer (log10/lung) in mouse no. 4 / Pulmonary virus titer (log10/lung) in mouse no. 5 / Pulmonary virus titer (log10/lung) in mouse no. 6 / Pulmonary virus titer (log10/lung) in mouse no. 7: non-ISS = SEQ ID NO:9
HBV = test: Chronic HBV model: serum HBV DNA and HBsAg in STC transgenic mice; type: in vivo, STC strain transgenic mice
Method: ISS activity was tested in an animal model of chronic hepatitis. An ISS-containing phosphorothioate oligonucleotide (5′-[…]-3′) (SEQ ID NO:1), was delivered to STC strain transgenic mice, followed by measurement of HBV DNA and HBsAg production.
STC line mice were developed at Stanford University by Patricia Marion. The majority of these mice secrete HBV of the Ayw genotype (Galibert et al. (1979) Nature 281:646) to titers of 10^6-8 viral genome equivalents per ml of serum. STC mice were derived from the FVB strain, and were constructed by microinjection of HBV genomic DNA.
Approximately one month old mice were bled and tested for serum levels of HBsAg, which is predictive of viral DNA titer. A pool of 40 STC mice with approximately equal levels of HBsAg were selected and randomly assigned to four treatment groups of 10 animals each. The groups were treated as follows: • 1. 100 μg of ISS injected subcutaneously, once per week for 3 weeks (days 0, 7, 14) • 2. 100 μg of ISS injected subcutaneously, one injection at day 14 • 3. 100 ng of murine 1L-12 injected intraperitoneally on days 12, 13, and 14. • 4. PBS injected subcutaneously (days 0, 7, 14)
Blood samples were taken at day 0, 7, 14, 15 (22 hr after last IL-12 injection), 18, 28 and 35. Serum prepared from the blood samples was tested for HBV DNA by quantitative PCR (testing performed under contract by Hepadnavirus Testing, Inc.), and HBsAg using a commercially available EIA kit for HBsAg from Abbott Laboratories. Animals were sacrificed at day 35 and livers were collected for histologic analysis.

RSV A2 = test: RSV lung titer in cotton rats after local (intranasal) administration; type: in vivo, cotton rat (Sigmoden hispidis); settings: for RSV titer (log10/g lung) Mean / RSV titer (log10/g lung) in CR No. 1 / RSV titer (log10/g lung) in CR No. 2 / RSV titer (log10/g lung) in CR No. 3 / RSV titer (log10/g lung) in CR No. 4: non-ISS = SEQ ID NO:9
Method: Cotton rats, 50-100 g and 4-12 weeks old (Sigmoden hispidis) of either sex were used in these studies. All of the animals were descendants of two pair of cotton rats obtained in 1984 from the Small Animal Section of the Veterinary Research Branch, Division of Research Services, National Institutes of Health.
RSV strain A2 was purchased from the ATCC (ATCC VR26). Working stocks of this virus were prepared as described in detail by Wyde et al. (1995) Pediatr. Res. 38:543-550. ISS sequence tested for RSV experiments was 5′-[…]-3′ (SEQ ID NO:1) (phosphorothioate). Control, non-ISS sequences used were 5′-[…]-3′ (SEQ ID NO:9) (phosphorothioate) and 5′-[…]-3′ (SEQ ID NO:10) (phosphorothioate), as well as PBS.
RSV levels in virus pools and lung lavage fluids (L.F.) were determined using sterile 96-well, flat bottom tissue culture plates (Falcon 3072), serial 3-fold dilutions and 2% FCS-MEM as described in detail previously (Wyde et al., 1995). […] The amount of virus in virus pools was expressed as a median tissue culture infectious doses (TCID50/ml, log10). Titers of virus in L.F. were expressed as TCID50/g lung tissue (log10). The minimum detectable virus concentration in these assays was 1.3 log10 TCID50/ml (virus pools) or 1.6 log10 TCID50/g lung.
On day −3 (i.e., 3 days before infection with virus), 20 cotton rats (CRs) were selected and divided into five groups of four animals. The animals in Group 1 were lightly anesthetized and 50 μL of phosphate buffered saline (PBS) was administered intranasally (IN). The CRs in Group 2 were similarly administered 150 μg of ISS (5′-[…]-3′) (SEQ ID NO:1), while the animals in Group 3 were similarly administered 150 μg of control non-ISS sequence 5′-[…]-3′ (SEQ ID NO:9). Three days later, on Day 0, each of CRs in Group 4 were anesthetized and 150 μg of ISS was administered IN, and the animals in Group 5 were administered, in a like manner, 150 μg of control non-ISS sequence 5′-[…]-3′ (SEQ ID NO:9).
Thirty minutes later, all of the CRs were inoculated IN with 100 median tissue culture infectious doses (TCID50) of RSV A2. Four days later (Day 4), all of the animals were sacrificed and the lungs of each animal were removed, lavaged, and assessed for RSV levels.

[2] = system: influenza A/Mississippi (H3N2) virus; type: in vivo, mice; settings: for Pulmonary virus titer (log10/lung) Mean / Pulmonary virus titer (log10/lung) in mouse no. 1 / Pulmonary virus titer (log10/lung) in mouse no. 2 / Pulmonary virus titer (log10/lung) in mouse no. 3 / Pulmonary virus titer (log10/lung) in mouse no. 4 / Pulmonary virus titer (log10/lung) in mouse no. 5: non-ISS = SEQ ID NO:10
HSV-1 = test: Viral titer after pre-treating HSV-1 virus with oligonucleotide, Vero cells; type: cell-based, African Green monkey (Vero cells)
Method: HSV-1 or HSV-2 virus was pre-treated with varying concentrations of ISS or non-ISS oligonucleotides for 10 minutes prior to adding the mixture to plated Vero cells. Oligonucleotides were used at 1 μg/ml or 10 μg/ml. Viral titers were calculated as a percent of control titer generated by cells not treated with the oligonucleotides. The data are expressed as percent of control titer.

[3] = 50 μg IN Day 0 shortly before virus, lungs Day 4
[4] = 50 μg IN Day −3, virus Day 0, lungs Day 4
[5] = 150 μg IN Day 0 (30 min before RSV), lungs Day 4
[6] = 150 μg IN Day −3, RSV Day 0, lungs Day 4
[7] = 50 μg IP Day −1, virus Day 0, lungs Day 4
[8] = 50 μg IP Day −3, virus Day 0, lungs Day 4

5′-TGACTGTGAACGTTCGAGATGA-3′ [SEQ ID NO: 1]
Pulmonary virus titer (log10/lung) Mean [1, 3]: 4.6 log10/lung
Pulmonary virus titer (log10/lung) in mouse no. 1 [1, 3]: 4 log10/lung
Pulmonary virus titer (log10/lung) in mouse no. 2 [1, 3]: 5.5 log10/lung
Pulmonary virus titer (log10/lung) in mouse no. 3 [1, 3]: 5 log10/lung
Pulmonary virus titer (log10/lung) in mouse no. 4 [1, 3]: 4.5 log10/lung
Pulmonary virus titer (log10/lung) in mouse no. 5 [1, 3]: 4.5 log10/lung
Pulmonary virus titer (log10/lung) in mouse no. 6 [1, 3]: 4.5 log10/lung
Pulmonary virus titer (log10/lung) in mouse no. 7 [1, 3]: 4.5 log10/lung
Pulmonary virus titer (log10/lung) Mean [1, 4]: 4.7 log10/lung
Pulmonary virus titer (log10/lung) in mouse no. 1 [1, 4]: 5.5 log10/lung
Pulmonary virus titer (log10/lung) in mouse no. 2 [1, 4]: 4 log10/lung
Pulmonary virus titer (log10/lung) in mouse no. 3 [1, 4]: 6 log10/lung
Pulmonary virus titer (log10/lung) in mouse no. 4 [1, 4]: 5.5 log10/lung
Pulmonary virus titer (log10/lung) in mouse no. 5 [1, 4]: 5 log10/lung
Pulmonary virus titer (log10/lung) in mouse no. 6 [1, 4]: 4 log10/lung
Pulmonary virus titer (log10/lung) in mouse no. 7 [1, 4]: 3 log10/lung
Reduction in influenza virus titer compared to PBS ([1]; IN, 50 μg/mouse before viral infection): fails to cause a satisfactory significant reduction in virus titer
Reduction of mean viral DNA titer (HBV; Group 2: single SC injection 100 μg at day 14, three days after injection): 90 fold
Serum HBsAg levels versus PBS controls (HBV; STC mice, 100 μg SC): trend towards decreased average HBsAg values
Effect on serum HBV DNA viral titer (HBV; STC mice, ISS 100 μg SC, murine IL-12 100 ng IP days 12, 13, 14): effective in reducing viral titer
RSV titer (log10/g lung) Mean (RSV A2; [5]): 3.9 log10/g lung
RSV titer (log10/g lung) in CR No. 1 (RSV A2; [5]): 4 log10/g lung
RSV titer (log10/g lung) in CR No. 2 (RSV A2; [5]): 4 log10/g lung
RSV titer (log10/g lung) in CR No. 3 (RSV A2; [5]): 4.5 log10/g lung
RSV titer (log10/g lung) in CR No. 4 (RSV A2; [5]): 3 log10/g lung
RSV titer (log10/g lung) Mean (RSV A2; [6]): 2.8 log10/g lung
RSV titer (log10/g lung) in CR No. 1 (RSV A2; [6]): 3 log10/g lung
RSV titer (log10/g lung) in CR No. 2 (RSV A2; [6]): 3 log10/g lung
RSV titer (log10/g lung) in CR No. 3 (RSV A2; [6]): 2.5 log10/g lung
RSV titer (log10/g lung) in CR No. 4 (RSV A2; [6]): 2.5 log10/g lung
Effect on RSV viral titer in infected tissue (RSV A2; IN administration 3 days before infection): effective at reducing viral titers
Effect on RSV viral titer in infected tissue (RSV A2; first IN administration on the day of infection): not effective
Pulmonary virus titer (log10/lung) Mean [2, 7]: 6.8 log10/lung
Pulmonary virus titer (log10/lung) in mouse no. 1 [2, 7]: 6.3 log10/lung
Pulmonary virus titer (log10/lung) in mouse no. 2 [2, 7]: 6.8 log10/lung
Pulmonary virus titer (log10/lung) in mouse no. 3 [2, 7]: 7.3 log10/lung
Pulmonary virus titer (log10/lung) in mouse no. 4 [2, 7]: 6.8 log10/lung
Pulmonary virus titer (log10/lung) in mouse no. 5 [2, 7]: 6.8 log10/lung
Pulmonary virus titer (log10/lung) Mean [2, 8]: 6.9 log10/lung
Pulmonary virus titer (log10/lung) in mouse no. 1 [2, 8]: 7.3 log10/lung
Pulmonary virus titer (log10/lung) in mouse no. 2 [2, 8]: 5.8 log10/lung
Pulmonary virus titer (log10/lung) in mouse no. 3 [2, 8]: 7.3 log10/lung
Pulmonary virus titer (log10/lung) in mouse no. 4 [2, 8]: 6.8 log10/lung
Pulmonary virus titer (log10/lung) in mouse no. 5 [2, 8]: 7.3 log10/lung
Reduction in influenza virus titer compared to PBS ([2]; IP, 50 μg/mouse before viral infection): fails to cause a satisfactory significant reduction in virus titer
Effect on viral titers from infected cells (HSV-1; HSV virus incubated with ISS prior to infecting cells in vitro (HSV-1 and HSV-2, Table 13)): no effect on the viral titers
Viral titer, percent of control titer (HSV-1; HSV-1 virus pre-treated 10 minutes with 1 μg/ml): 101% of control titer
Viral titer, percent of control titer (HSV-1; HSV-1 virus pre-treated 10 minutes with 10 μg/ml): 109% of control titer
